Test results reported in the kinase profiling compilation of Christmann-Franck et al. (2016).

Columns and labels:
PIM1 (human) [1] = target: PIM1 (human) (UniProt P11309); assay: SelectScreen, TR FRET
PIM2 (human) [2] = target: PIM2 (human) (UniProt Q9P1W9); assay: SelectScreen, TR FRET
HIPK1 (human) = HIPK1 (human) (UniProt Q86Z02); assay: KINOMEscan competition binding; settings: compound 10.0 µM
STK17B (human) = STK17B (human) (UniProt O94768); assay: KINOMEscan competition binding; settings: compound 10.0 µM
PIM3 (human) = PIM3 (human) (UniProt Q86V86); assay: KINOMEscan competition binding; settings: compound 10.0 µM
PIM1 (human) [3] = target: PIM1 (human) (UniProt P11309); assay: KINOMEscan competition binding; settings: compound 10.0 µM
DAPK2 (human) = DAPK2 (human) (UniProt Q9UIK4); assay: KINOMEscan competition binding; settings: compound 10.0 µM
CSNK2A1 (human) = CSNK2A1 (human) (UniProt P68400); assay: KINOMEscan competition binding; settings: compound 10.0 µM
CSNK2A2 (human) = CSNK2A2 (human) (UniProt P19784); assay: KINOMEscan competition binding; settings: compound 10.0 µM
CDK7 (human) = CDK7 (human) (UniProt P50613); assay: KINOMEscan competition binding; settings: compound 10.0 µM
[4] = test system: EIF2AK4 KD2 (human), Q9P2K8 [S808G]; assay: KINOMEscan competition binding; settings: compound 10.0 µM
PIM2 (human) [5] = target: PIM2 (human) (UniProt Q9P1W9); assay: KINOMEscan competition binding; settings: compound 10.0 µM
ZAP70 (human) = ZAP70 (human) (UniProt P43403); assay: KINOMEscan competition binding; settings: compound 10.0 µM
STK17A (human) = STK17A (human) (UniProt Q9UEE5); assay: KINOMEscan competition binding; settings: compound 10.0 µM
GSK3A (human) = GSK3A (human) (UniProt P49840); assay: KINOMEscan competition binding; settings: compound 10.0 µM
MAPK12 (human) = MAPK12 (human) (UniProt P53778); assay: KINOMEscan competition binding; settings: compound 10.0 µM
CLK4 (human) = CLK4 (human) (UniProt Q9HAZ1); assay: KINOMEscan competition binding; settings: compound 10.0 µM
PIK3CG (human) = PIK3CG (human) (UniProt P48736); assay: KINOMEscan competition binding; settings: compound 10.0 µM
PLK4 (human) = PLK4 (human) (UniProt O00444); assay: KINOMEscan competition binding; settings: compound 10.0 µM
[6] = target: TYK2 JH2 pseudokinase (human) (UniProt P29597); assay: KINOMEscan competition binding; settings: compound 10.0 µM
TGFBR2 (human) = TGFBR2 (human) (UniProt P37173); assay: KINOMEscan competition binding; settings: compound 10.0 µM
[7] = test system: ABL1 (human), P00519 [F317I]; assay: KINOMEscan competition binding; settings: compound 10.0 µM
PLK1 (human) = PLK1 (human) (UniProt P53350); assay: KINOMEscan competition binding; settings: compound 10.0 µM
TTK (human) = TTK (human) (UniProt P33981); assay: KINOMEscan competition binding; settings: compound 10.0 µM
ULK1 (human) = ULK1 (human) (UniProt O75385); assay: KINOMEscan competition binding; settings: compound 10.0 µM
ULK2 (human) = ULK2 (human) (UniProt Q8IYT8); assay: KINOMEscan competition binding; settings: compound 10.0 µM
PTK2B (human) = PTK2B (human) (UniProt Q14289); assay: KINOMEscan competition binding; settings: compound 10.0 µM
CSF1R (human) = CSF1R (human) (UniProt P07333); assay: KINOMEscan competition binding; settings: compound 10.0 µM
CAMKK2 (human) = CAMKK2 (human) (UniProt Q96RR4); assay: KINOMEscan competition binding; settings: compound 10.0 µM
TAOK1 (human) = TAOK1 (human) (UniProt Q7L7X3); assay: KINOMEscan competition binding; settings: compound 10.0 µM
FRK (human) = FRK (human) (UniProt P42685); assay: KINOMEscan competition binding; settings: compound 10.0 µM
MKNK2 (human) = MKNK2 (human) (UniProt Q9HBH9); assay: KINOMEscan competition binding; settings: compound 10.0 µM
TAOK3 (human) = TAOK3 (human) (UniProt Q9H2K8); assay: KINOMEscan competition binding; settings: compound 10.0 µM
ROS1 (human) = ROS1 (human) (UniProt P08922); assay: KINOMEscan competition binding; settings: compound 10.0 µM
CAMK2D (human) = CAMK2D (human) (UniProt Q13557); assay: KINOMEscan competition binding; settings: compound 10.0 µM
RPS6KA1 KD2 (human) = RPS6KA1 KD2 (human) (UniProt Q15418); assay: KINOMEscan competition binding; settings: compound 10.0 µM
AURKC (human) = AURKC (human) (UniProt Q9UQB9); assay: KINOMEscan competition binding; settings: compound 10.0 µM
PTK2 (human) = PTK2 (human) (UniProt Q05397); assay: KINOMEscan competition binding; settings: compound 10.0 µM
RPS6KA6 KD2 (human) = RPS6KA6 KD2 (human) (UniProt Q9UK32); assay: KINOMEscan competition binding; settings: compound 10.0 µM
FER (human) = FER (human) (UniProt P16591); assay: KINOMEscan competition binding; settings: compound 10.0 µM
GAK (human) = GAK (human) (UniProt O14976); assay: KINOMEscan competition binding; settings: compound 10.0 µM
DCLK1 (human) = DCLK1 (human) (UniProt O15075); assay: KINOMEscan competition binding; settings: compound 10.0 µM
MYLK (human) = MYLK (human) (UniProt Q15746); assay: KINOMEscan competition binding; settings: compound 10.0 µM
DCLK2 (human) = DCLK2 (human) (UniProt Q8N568); assay: KINOMEscan competition binding; settings: compound 10.0 µM
NUAK1 (human) = NUAK1 (human) (UniProt O60285); assay: KINOMEscan competition binding; settings: compound 10.0 µM
[8] = test system: ABL1 (human), P00519 [F317L]; assay: KINOMEscan competition binding; settings: compound 10.0 µM
PTK6 (human) = PTK6 (human) (UniProt Q13882); assay: KINOMEscan competition binding; settings: compound 10.0 µM
STK33 (human) = STK33 (human) (UniProt Q9BYT3); assay: KINOMEscan competition binding; settings: compound 10.0 µM
TNK2 (human) = TNK2 (human) (UniProt Q07912); assay: KINOMEscan competition binding; settings: compound 10.0 µM
MAPK7 (human) = MAPK7 (human) (UniProt Q13164); assay: KINOMEscan competition binding; settings: compound 10.0 µM
FGFR4 (human) = FGFR4 (human) (UniProt P22455); assay: KINOMEscan competition binding; settings: compound 10.0 µM
AURKA (human) = AURKA (human) (UniProt O14965); assay: KINOMEscan competition binding; settings: compound 10.0 µM
PRKD1 (human) = PRKD1 (human) (UniProt Q15139); assay: KINOMEscan competition binding; settings: compound 10.0 µM
RPS6KA2 KD2 (human) = RPS6KA2 KD2 (human) (UniProt Q15349); assay: KINOMEscan competition binding; settings: compound 10.0 µM
ALK (human) = ALK (human) (UniProt Q9UM73); assay: KINOMEscan competition binding; settings: compound 10.0 µM
TNK1 (human) = TNK1 (human) (UniProt Q13470); assay: KINOMEscan competition binding; settings: compound 10.0 µM

Sequence of PIM2 (human) (Q9P1W9 whole entry, looked up): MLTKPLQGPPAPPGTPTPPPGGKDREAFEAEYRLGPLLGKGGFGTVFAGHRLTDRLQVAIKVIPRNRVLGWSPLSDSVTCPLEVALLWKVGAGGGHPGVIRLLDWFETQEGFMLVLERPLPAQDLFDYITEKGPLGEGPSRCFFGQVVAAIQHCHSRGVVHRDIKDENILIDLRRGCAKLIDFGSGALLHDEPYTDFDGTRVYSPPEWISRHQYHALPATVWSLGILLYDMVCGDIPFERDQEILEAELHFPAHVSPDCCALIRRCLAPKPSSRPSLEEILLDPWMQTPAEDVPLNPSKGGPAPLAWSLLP
Sequence of PIK3CG (human) (P48736 whole entry, looked up): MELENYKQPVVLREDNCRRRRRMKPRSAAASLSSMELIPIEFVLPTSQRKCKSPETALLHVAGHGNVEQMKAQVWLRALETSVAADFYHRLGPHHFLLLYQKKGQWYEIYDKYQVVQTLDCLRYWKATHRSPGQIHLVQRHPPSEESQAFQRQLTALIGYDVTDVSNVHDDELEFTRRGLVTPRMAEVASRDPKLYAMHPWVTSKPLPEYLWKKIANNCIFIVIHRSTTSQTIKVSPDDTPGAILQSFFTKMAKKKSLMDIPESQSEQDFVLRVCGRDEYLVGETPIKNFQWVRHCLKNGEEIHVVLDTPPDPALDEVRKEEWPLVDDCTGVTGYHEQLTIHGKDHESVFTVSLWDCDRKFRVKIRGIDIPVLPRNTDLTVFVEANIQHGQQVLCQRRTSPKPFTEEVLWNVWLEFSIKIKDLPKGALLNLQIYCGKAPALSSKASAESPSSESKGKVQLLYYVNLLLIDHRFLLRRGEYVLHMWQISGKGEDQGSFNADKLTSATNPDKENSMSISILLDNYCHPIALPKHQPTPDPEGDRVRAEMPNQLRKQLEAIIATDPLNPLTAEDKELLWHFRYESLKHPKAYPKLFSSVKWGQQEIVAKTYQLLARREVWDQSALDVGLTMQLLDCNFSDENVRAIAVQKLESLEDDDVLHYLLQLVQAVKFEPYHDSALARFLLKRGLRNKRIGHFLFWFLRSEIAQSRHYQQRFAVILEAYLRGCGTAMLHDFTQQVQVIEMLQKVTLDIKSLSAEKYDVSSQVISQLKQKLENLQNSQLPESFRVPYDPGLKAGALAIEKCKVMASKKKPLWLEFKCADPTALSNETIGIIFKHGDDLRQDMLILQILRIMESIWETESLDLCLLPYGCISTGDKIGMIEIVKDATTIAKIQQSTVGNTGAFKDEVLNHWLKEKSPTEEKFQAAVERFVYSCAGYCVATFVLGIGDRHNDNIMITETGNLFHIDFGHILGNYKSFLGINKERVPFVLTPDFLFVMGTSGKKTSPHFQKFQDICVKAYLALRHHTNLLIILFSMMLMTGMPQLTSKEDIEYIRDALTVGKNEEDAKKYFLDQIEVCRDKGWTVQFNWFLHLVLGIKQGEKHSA
Sequence of PLK4 (human) (O00444 whole entry, looked up): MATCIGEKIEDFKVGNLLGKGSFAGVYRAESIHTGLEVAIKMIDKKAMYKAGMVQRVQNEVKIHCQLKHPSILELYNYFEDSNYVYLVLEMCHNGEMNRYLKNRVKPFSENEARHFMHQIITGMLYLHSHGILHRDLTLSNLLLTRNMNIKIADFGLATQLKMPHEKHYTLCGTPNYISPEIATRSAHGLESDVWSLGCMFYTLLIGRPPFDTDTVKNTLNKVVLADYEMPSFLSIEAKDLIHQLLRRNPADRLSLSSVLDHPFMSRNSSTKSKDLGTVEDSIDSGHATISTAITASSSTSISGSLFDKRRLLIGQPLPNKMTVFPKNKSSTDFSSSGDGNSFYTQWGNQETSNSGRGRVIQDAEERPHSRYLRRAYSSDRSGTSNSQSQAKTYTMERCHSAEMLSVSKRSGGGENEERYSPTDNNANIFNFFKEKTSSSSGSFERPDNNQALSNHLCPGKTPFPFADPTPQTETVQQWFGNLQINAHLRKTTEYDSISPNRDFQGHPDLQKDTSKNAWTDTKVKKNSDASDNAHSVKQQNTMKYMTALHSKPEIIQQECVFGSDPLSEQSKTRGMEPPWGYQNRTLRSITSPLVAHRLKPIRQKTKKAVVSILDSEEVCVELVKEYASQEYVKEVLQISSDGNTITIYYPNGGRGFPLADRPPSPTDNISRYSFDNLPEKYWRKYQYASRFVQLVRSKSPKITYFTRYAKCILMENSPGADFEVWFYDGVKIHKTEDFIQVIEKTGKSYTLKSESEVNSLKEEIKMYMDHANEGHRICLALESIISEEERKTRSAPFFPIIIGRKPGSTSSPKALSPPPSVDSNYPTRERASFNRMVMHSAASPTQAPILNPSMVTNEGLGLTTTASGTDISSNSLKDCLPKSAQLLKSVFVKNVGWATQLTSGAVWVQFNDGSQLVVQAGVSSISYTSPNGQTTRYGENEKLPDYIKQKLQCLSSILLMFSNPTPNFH
Sequence of PIM1 (human) (P11309 whole entry, looked up): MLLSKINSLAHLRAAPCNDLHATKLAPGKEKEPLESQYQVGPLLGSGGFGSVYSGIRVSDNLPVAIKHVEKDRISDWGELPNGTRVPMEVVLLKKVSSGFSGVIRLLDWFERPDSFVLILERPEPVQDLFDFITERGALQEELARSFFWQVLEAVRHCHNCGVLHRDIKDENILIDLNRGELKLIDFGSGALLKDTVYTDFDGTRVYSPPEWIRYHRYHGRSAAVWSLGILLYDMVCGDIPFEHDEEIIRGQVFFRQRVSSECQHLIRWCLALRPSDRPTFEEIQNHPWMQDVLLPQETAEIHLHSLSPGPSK
Sequence of CSF1R (human) (P07333 whole entry, looked up): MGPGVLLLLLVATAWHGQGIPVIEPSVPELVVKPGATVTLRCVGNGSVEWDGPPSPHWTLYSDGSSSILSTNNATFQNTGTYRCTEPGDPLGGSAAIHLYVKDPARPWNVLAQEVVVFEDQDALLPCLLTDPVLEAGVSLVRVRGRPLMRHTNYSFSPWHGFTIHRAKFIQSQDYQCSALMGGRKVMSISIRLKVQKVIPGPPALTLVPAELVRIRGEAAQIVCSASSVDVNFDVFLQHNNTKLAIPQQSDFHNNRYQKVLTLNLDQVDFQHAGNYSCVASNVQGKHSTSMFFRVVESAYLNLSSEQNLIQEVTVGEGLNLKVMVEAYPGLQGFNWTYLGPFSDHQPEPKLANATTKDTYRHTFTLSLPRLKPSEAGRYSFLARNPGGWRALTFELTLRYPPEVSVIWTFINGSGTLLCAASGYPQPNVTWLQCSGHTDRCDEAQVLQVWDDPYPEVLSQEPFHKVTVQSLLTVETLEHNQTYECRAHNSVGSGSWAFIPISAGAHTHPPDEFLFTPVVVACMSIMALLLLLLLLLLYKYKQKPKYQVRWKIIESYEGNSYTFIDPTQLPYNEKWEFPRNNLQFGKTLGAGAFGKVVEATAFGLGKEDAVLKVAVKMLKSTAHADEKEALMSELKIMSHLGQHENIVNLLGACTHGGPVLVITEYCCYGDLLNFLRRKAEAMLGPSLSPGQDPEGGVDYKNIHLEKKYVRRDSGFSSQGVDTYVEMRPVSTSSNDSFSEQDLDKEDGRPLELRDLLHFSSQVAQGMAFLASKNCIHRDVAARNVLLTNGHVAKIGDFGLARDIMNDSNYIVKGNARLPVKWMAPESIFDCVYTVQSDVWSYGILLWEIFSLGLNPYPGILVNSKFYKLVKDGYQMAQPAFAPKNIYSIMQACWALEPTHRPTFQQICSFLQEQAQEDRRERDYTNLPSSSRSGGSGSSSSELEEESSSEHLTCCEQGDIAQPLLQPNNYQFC
Sequence of PTK2 (human) (Q05397 whole entry, looked up): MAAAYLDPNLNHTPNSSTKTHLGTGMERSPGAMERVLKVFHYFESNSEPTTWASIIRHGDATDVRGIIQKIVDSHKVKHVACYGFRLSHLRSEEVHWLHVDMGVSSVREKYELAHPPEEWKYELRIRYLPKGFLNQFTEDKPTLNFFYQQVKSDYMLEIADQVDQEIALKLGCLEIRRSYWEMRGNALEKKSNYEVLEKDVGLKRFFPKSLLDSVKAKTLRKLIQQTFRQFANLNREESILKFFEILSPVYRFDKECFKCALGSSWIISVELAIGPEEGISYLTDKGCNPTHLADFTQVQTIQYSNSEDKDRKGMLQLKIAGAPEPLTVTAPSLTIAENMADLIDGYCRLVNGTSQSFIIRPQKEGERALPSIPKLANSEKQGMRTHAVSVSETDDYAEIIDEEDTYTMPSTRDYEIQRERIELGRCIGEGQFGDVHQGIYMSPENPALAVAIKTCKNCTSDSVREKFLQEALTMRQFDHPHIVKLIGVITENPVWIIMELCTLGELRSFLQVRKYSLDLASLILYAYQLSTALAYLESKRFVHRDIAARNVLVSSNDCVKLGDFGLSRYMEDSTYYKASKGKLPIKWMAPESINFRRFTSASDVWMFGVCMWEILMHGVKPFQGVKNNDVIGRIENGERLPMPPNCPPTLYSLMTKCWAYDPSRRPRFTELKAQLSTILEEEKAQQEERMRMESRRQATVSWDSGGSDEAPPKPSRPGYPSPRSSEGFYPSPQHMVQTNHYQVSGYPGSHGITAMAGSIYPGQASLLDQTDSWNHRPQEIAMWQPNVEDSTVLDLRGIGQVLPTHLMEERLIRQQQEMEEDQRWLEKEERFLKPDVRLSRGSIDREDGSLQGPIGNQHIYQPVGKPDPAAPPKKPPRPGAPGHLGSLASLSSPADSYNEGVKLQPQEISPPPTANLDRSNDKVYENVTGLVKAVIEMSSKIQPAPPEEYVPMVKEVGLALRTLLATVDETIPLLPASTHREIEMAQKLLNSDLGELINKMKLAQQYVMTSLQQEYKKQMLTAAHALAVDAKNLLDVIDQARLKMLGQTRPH
Sequence of CSNK2A2 (human) (P19784 whole entry, looked up): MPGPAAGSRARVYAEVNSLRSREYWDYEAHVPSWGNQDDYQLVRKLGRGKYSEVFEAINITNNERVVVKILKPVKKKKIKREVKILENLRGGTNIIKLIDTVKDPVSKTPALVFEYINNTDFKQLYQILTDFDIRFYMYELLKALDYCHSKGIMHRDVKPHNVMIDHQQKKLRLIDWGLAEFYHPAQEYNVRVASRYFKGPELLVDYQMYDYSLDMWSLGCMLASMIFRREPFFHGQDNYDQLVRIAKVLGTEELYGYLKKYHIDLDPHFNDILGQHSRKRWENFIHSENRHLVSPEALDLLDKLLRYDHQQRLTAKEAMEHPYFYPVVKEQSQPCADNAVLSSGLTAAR

COc1cc(C(N)=O)ccc1-c1ccc(/C=C2\SC(=N)NC2=O)o1
IC50 (PIM1 (human) [1]): 861 nM | IC50 (PIM2 (human) [2]): 762 nM | kinase still bound, per cent of control (HIPK1 (human)): 5.2% | kinase still bound, per cent of control (STK17B (human)): 1.6% | kinase still bound, per cent of control (PIM3 (human)): 5.6% | kinase still bound, per cent of control (PIM1 (human) [3]): 3.4% | kinase still bound, per cent of control (DAPK2 (human)): 34% | kinase still bound, per cent of control (CSNK2A1 (human)): 18% | kinase still bound, per cent of control (CSNK2A2 (human)): 31% | kinase still bound, per cent of control (CDK7 (human)): 29% | kinase still bound, per cent of control [4]: 29% | kinase still bound, per cent of control (PIM2 (human) [5]): 0.95% | kinase still bound, per cent of control (ZAP70 (human)): 29% | kinase still bound, per cent of control (STK17A (human)): 0.4% | kinase still bound, per cent of control (GSK3A (human)): 28% | kinase still bound, per cent of control (MAPK12 (human)): 27% | kinase still bound, per cent of control (CLK4 (human)): 17% | kinase still bound, per cent of control (PIK3CG (human)): 28% | kinase still bound, per cent of control (PLK4 (human)): 22% | kinase still bound, per cent of control [6]: 5.1% | kinase still bound, per cent of control (TGFBR2 (human)): 14%

COc1cc(N2CCC(O)CC2)ccc1Nc1ncc2c(n1)N(C)c1ccccc1C(=O)N2C
kinase still bound, per cent of control [7]: 7.4% | kinase still bound, per cent of control (PLK1 (human)): 5.5% | kinase still bound, per cent of control (TTK (human)): 13% | kinase still bound, per cent of control (ULK1 (human)): 22% | kinase still bound, per cent of control (ULK2 (human)): 8.4% | kinase still bound, per cent of control (PTK2B (human)): 29% | kinase still bound, per cent of control (CSF1R (human)): 3.2% | kinase still bound, per cent of control (CAMKK2 (human)): 15% | kinase still bound, per cent of control (TAOK1 (human)): 6.8% | kinase still bound, per cent of control (FRK (human)): 11% | kinase still bound, per cent of control (MKNK2 (human)): 0% | kinase still bound, per cent of control (TAOK3 (human)): 5.4% | kinase still bound, per cent of control (ROS1 (human)): 5.8% | kinase still bound, per cent of control (CAMK2D (human)): 27% | kinase still bound, per cent of control (RPS6KA1 KD2 (human)): 22% | kinase still bound, per cent of control (AURKC (human)): 15% | kinase still bound, per cent of control (PTK2 (human)): 7.9% | kinase still bound, per cent of control (RPS6KA6 KD2 (human)): 14% | kinase still bound, per cent of control (FER (human)): 32% | kinase still bound, per cent of control (GAK (human)): 8.5% | kinase still bound, per cent of control (DCLK1 (human)): 0.55% | kinase still bound, per cent of control (MYLK (human)): 22% | kinase still bound, per cent of control (DCLK2 (human)): 0.4% | kinase still bound, per cent of control (NUAK1 (human)): 24% | kinase still bound, per cent of control [8]: 23% | kinase still bound, per cent of control (PTK6 (human)): 21% | kinase still bound, per cent of control (STK33 (human)): 19% | kinase still bound, per cent of control (TNK2 (human)): 1.6% | kinase still bound, per cent of control (PIK3CG (human)): 9.3% | kinase still bound, per cent of control (MAPK7 (human)): 0% | kinase still bound, per cent of control (PLK4 (human)): 5.9% | kinase still bound, per cent of control (FGFR4 (human)): 6% | kinase still bound, per cent of control (AURKA (human)): 26% | kinase still bound, per cent of control (PRKD1 (human)): 26% | kinase still bound, per cent of control (RPS6KA2 KD2 (human)): 27% | kinase still bound, per cent of control (ALK (human)): 24% | kinase still bound, per cent of control (TNK1 (human)): 0.45%
